IC50 data for three compounds are collected here from patent US12637454B2, “Heterocyclic monoacylglycerol lipase (MAGL) inhibitors” (Hoffmann-La Roche Inc., priority 2019, dated 2026).

This assay has as its target T1, MAGL (Homo sapiens, UniProt Q99685).
T1 sequence (Q99685 1-303): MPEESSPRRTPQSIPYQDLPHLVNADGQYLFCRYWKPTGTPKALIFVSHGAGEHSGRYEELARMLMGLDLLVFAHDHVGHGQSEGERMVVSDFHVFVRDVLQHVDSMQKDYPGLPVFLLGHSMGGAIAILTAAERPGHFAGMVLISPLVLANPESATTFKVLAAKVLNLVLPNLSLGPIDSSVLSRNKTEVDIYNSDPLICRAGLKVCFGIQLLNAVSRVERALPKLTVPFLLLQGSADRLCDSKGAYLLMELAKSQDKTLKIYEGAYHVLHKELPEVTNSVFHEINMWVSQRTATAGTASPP
Description: 2-AG assay (MAGL inhibitory activity, hydrolysis of 2-arachidonoylglycerol followed by mass spectrometry). The assay is classed as biochemical. Conditions: 50 pM MAGL, 8 μM 2-arachidonoylglycerol, 15 min preincubation, 30 min incubation at RT. The method, boiled down: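 MAGL at 50 pM preincubated 15 min at RT with compound (12.5 μM to 0.8 pM, 3-fold) in 50 mM TRIS, 1 mM EDTA, 0.01% Tween. Reaction with 8 μM 2-arachidonoylglycerol ran 30 min at RT, quenched with ACN; arachidonic acid measured by SPE-MS/MS as ratio to d8-arachidonic acid.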

SMILES strings stand for the structures.

Usually IC50 stands for the midpoint of a concentration-inhibition curve. Lower therefore signals higher potency. As for `O=C(c1cccc(-c2cnsc2)c1Cl)N1CCN2C[C@@](O)(c3ccc(Cl)cc3)CC[C@@H]2C1` [Example 68, [(7S,9aR)-7-(4-chlorophenyl)-7-hydroxy-3,4,6,8,9,9a-hexahydro-1H-pyrido[1,2-a]pyrazin-2-yl]-[2-chloro-3-(1,2-thiazol-4-yl)phenyl]methanone], it took 82.5 nM to reach half-maximal inhibition (IC50).
On to `O=C(c1cccc(-c2ccsn2)c1Cl)N1CCN2C[C@@](O)(c3ccc(C(F)(F)F)cn3)CC[C@@H]2C1` [Example 69, [(7R,9aR)-7-hydroxy-7-[5-(trifluoromethyl)pyridin-2-yl]-3,4,6,8,9,9a-hexahydro-1H-pyrido[1,2-a]pyrazin-2-yl]-[2-chloro-3-(1,2-thiazol-3-yl)phenyl]methanone], for which the IC50 is 126 nM.
The same measure for `Cc1c(C(=O)N2CCN3C[C@@](O)(c4ccc(Cl)cc4)CC[C@@H]3C2)cncc1-c1cc[nH]n1` [Example 70, [(7S,9aR)-7-(4-chlorophenyl)-7-hydroxy-3,4,6,8,9,9a-hexahydro-1H-pyrido[1,2-a]pyrazin-2-yl]-[4-methyl-5-(1H-pyrazol-3-yl)pyridin-3-yl]methanone]: 994 nM.
